For this assay, the target named is T1, human p38alfa (SAPKa) enzyme (Homo sapiens, UniProt Q16539).
T1 construct: purchased University of Dundee
The assay can be described thus: Inhibition assay: p38alfa enzymatic activity (FRET, biotinylated ATF2 substrate). Format: biochemical. The following applies: 1 h pre-incubation; ATF2 0.62 μM and ATP 60 μM; 1 h at 25° C.; read-out: p38α IC50. Here is the method: Various concentrations of the test compound or vehicle controls were pre-incubated for one hour with 0.055 μg/ml of the human p38alfa (SAPKa) enzyme (obtained from University of Dundee). […] Addition of the detection reagents, streptavidin-XL665 and anti-phosphoresidue antibody coupled to Europium cryptate, caused the juxtaposition of the cryptate and the XL665 fluorophore, resulting in fluorescence energy transfer (FRET). The FRET intensity depends on the amount of bounded cryptate antibody, which is proportional to the extent of substrate phosphorylation. FRET intensity was measured using Victor 2V spectrofluorometer.
Data were analyzed by non-linear regression (Hill equation) to generate a dose-response curve.

This passage reports IC50 results from US8450341B2, “Substituted indolin-2-one derivatives and their use as P38 mitogen-activated kinase inhibitors” (Almirall, S.A., priority 2008, dated 2013).

Molecules are shown by their SMILES.

T1 sequence (Q16539 whole entry): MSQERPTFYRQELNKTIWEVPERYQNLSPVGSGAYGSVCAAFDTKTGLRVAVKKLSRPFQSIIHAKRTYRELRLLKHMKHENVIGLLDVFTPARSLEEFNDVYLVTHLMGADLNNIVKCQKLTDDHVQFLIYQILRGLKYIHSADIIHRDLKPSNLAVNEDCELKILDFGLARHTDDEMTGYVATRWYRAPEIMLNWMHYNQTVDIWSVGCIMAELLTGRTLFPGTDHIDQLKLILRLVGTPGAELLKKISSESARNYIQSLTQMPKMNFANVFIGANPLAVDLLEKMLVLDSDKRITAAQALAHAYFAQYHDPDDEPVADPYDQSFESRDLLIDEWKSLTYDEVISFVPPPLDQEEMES

As a reminder, the IC50 is the concentration needed to halve the response being measured. On to `Cc1ccc2c(NC3CC3)noc2c1-c1ccc2c(c1)NC(=O)C21CCCC1` [Example 1, 6′-(3-(Cyclopropylamino)-6-methylbenzo[d]isoxazol-7-yl)spiro[cyclopentane-1,3′-indolin]-2′-one], for which the 50% inhibitory concentration (IC50) was found to be 0.9 nM.

For `O=C1Nc2cc(-c3cccc4c(NC5CC5)noc34)ccc2C12CCCC2` [Example 2, 6′-(3-(Cyclopropylamino)benzo[d]isoxazol-7-yl)spiro[cyclopentane-1,3′-indolin]-2′-one], the 50% inhibitory concentration (IC50) was determined as 39 nM.

Consider `O=C1Nc2cc(-c3cccc4c(NC5CC5)noc34)c(Cl)cc2C12CCCC2` [Example 3, 5′-Chloro-6′-(3-(cyclopropylamino)benzo[d]isoxazol-7-yl)spiro[cyclopentane-1,3′-indolin]-2′-one], for which the IC50 is 4 nM.

Consider `Cc1ccc2c(NC3CC3)noc2c1-c1ccc2c(c1)NC(=O)C21CCOCC1` [Example 4, 6-(3-(Cyclopropylamino)-6-methylbenzo[d]isoxazol-7-yl)-2′,3′,5′,6′-tetrahydrospiro [indoline-3,4′-pyran]-2-one], for which the IC50 was determined as 0.2 nM.

As for `Cc1ccc2c(NC3CC3)noc2c1-c1ccc2c(c1)NC(=O)C21CCC(F)(F)CC1` [Example 5, 6′-(3-(Cyclopropylamino)-6-methylbenzo[d]isoxazol-7-yl)-4,4-difluorospiro [cyclohexane-1,3′-indolin]-2′-one], the IC50 is 0.06 nM.

Turning to `Cc1ccc2c(NC3CC3)noc2c1-c1ccc2c(c1)NC(=O)C2(C)C` [Example 6, 6-(3-(Cyclopropylamino)-6-methylbenzo[d]isoxazol-7-yl)-3,3-dimethylindolin-2-one], the half-maximal inhibitory concentration (IC50) is 0.4 nM.

On to `Cc1ccc2c(NC3CC3)noc2c1-c1cnc2c(c1)NC(=O)C21CCOCC1` [Example 7, 6′-(3-(cyclopropylamino)-6-methylbenzo[d]isoxazol-7-yl)-2,3,5,6-tetrahydrospiro[pyran-4,3′-pyrrolo[3,2-b]pyridin]-2′(1′H)-one], for which the IC50 came to 6.3 nM.

As for `Cc1ccc2c(NC3CC3)noc2c1-c1cnc2c(c1)NC(=O)C21CCC(C)(O)CC1` (stereo not drawn) [Example 8, 6′-(3-(cyclopropylamino)-6-methylbenzo[d]isoxazol-7-yl)-4-hydroxy-4-methylspiro[cyclohexane-1,3′-pyrrolo[3,2-b]pyridin]-2′(1′H)-one], the IC50 turned out to be 0.65 nM.

For the molecule `Cc1ccc2c(NC3CC3)noc2c1-c1cnc2c(c1)NC(=O)C21CCC(C)(O)CC1` (stereo not drawn) [Example 9, 6′-(3-(cyclopropylamino)-6-methylbenzo[d]isoxazol-7-yl)-4-hydroxy-4-methylspiro[cyclohexane-1,3′-pyrrolo[3,2-b]pyridin]-2′(1′H)-one], the concentration for half-maximal inhibition (IC50) is 0.4 nM.

Take `Cc1ccc2c(N)noc2c1-c1ccc2c(c1)NC(=O)C21CCOCC1` [Example 11, 6-(3-Amino-6-methylbenzo[d]isoxazol-7-yl)-2′,3′,5′,6′-tetrahydrospiro[indoline-3,4′-pyran]-2-one]: the IC50 came to 10 nM.

Regarding `Cc1ccc2c(N)noc2c1-c1ccc2c(c1)NC(=O)C21CCC(C)(O)CC1` (stereo not drawn) [Example 12, 6′-(3-amino-6-methylbenzo[d]isoxazol-7-yl)-4-hydroxy-4-methylspiro[cyclohexane-1,3′-indolin]-2′-one], the IC50 worked out at 0.9 nM.

Take `Cc1ccc2c(N)noc2c1-c1ccc2c(c1)NC(=O)C21CCC(OCCN2CCOCC2)CC1` (stereo not drawn) [Example 13, 6′-(3-amino-6-methylbenzo[d]isoxazol-7-yl)-4-(2-morpholinoethoxy)spiro[cyclohexane-1,3′-indolin]-2′-one]: the IC50 was determined as 3.3 nM.

Turning to `Cc1ccc2c(N)noc2c1-c1ccc2c(c1)NC(=O)C21CCC(F)(F)CC1` [Example 14, 6′-(3-Amino-6-methyl-1,2-benzisoxazol-7-yl)-4,4-difluorospiro[cyclohexane-1,3′-indol]-2′(1′H)-one], the IC50 was 1 nM.

Regarding `Cc1ccc2c(N)noc2c1-c1ccc2c(c1)NC(=O)C2(C)C` [Example 15, 6-(3-Amino-6-methyl-1,2-benzisoxazol-7-yl)-3,3-dimethyl-1,3-dihydro-2H-indol-2-one], the IC50 was determined as 38 nM.

Take `Cc1ccn2c(NCC3CC3)nnc2c1-c1ccc2c(c1)NC(=O)C21CCCC1` [Example 20, 6′-(3-(cyclopropylmethylamino)-7-methyl-[1,2,4]triazolo[4,3-a]pyridin-8-yl)spiro[cyclopentane-1,3′-indolin]-2′-one]: the half-maximal inhibitory concentration (IC50) came out at 20 nM.
